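Protocol summary: plate cells (96-well), add compound at 5 concentrations, incubate 48 h, interpolate endpoints linearly. GI50: concentration for 50% inhibition of growth. Definition used: TGI = concentration required for complete inhibition of growth.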
Tests used:
Experiment in all cases: DTP human tumour cell line panel, 48 h
[1] = test system: SK-MEL-28 melanoma
[2] = test system: IGROV1 ovarian
[3] = test system: NCI-H226 lung
[4] = test system: MCF7 breast
[5] = test system: HS 578T breast
[6] = test system: SF-539 CNS
[7] = test system: SK-MEL-2 melanoma
[8] = test system: MALME-3M melanoma
[9] = test system: T-47D breast
[10] = test system: RXF 393 renal
[11] = test system: NCI/ADR-RES ovarian
[12] = test system: SNB-19 CNS
[13] = test system: MDA-MB-231 breast
[14] = test system: NCI-H23 lung
[15] = test system: SF-268 CNS
[16] = test system: HOP-62 NSCLC
[17] = test system: OVCAR-5 ovarian
[18] = test system: 786-0 renal
[19] = test system: HOP-92 NSCLC
[20] = test system: A498 renal
[21] = test system: OVCAR-4 ovarian
[22] = test system: SK-OV-3 ovarian
[23] = test system: NCI-H522 lung
[24] = test system: TK-10 renal
[25] = test system: PC-3 prostate
[26] = test system: SN12C renal
[27] = test system: HCC-2998 colon
[28] = test system: BT-549 breast
[29] = test system: DU-145 prostate
[30] = test system: HT29 colon
[31] = test system: HCT-116 colon
[32] = test system: CAKI-1 renal
[33] = test system: MOLT-4 leukemia
[34] = test system: UACC-62 melanoma
[35] = test system: NCI-H460 lung
[36] = test system: K-562 leukemia
[37] = test system: HL-60(TB) leukemia
[38] = test system: LOX IMVI melanoma
[39] = test system: EKVX NSCLC
[40] = test system: SNB-75 CNS
[41] = test system: RPMI-8226 leukemia
[42] = test system: ACHN renal
[43] = test system: SW-620 colon
[44] = test system: CCRF-CEM leukemia
[45] = test system: M14 melanoma
[46] = test system: HCT-15 colon
[47] = test system: SF-295 CNS
[48] = test system: OVCAR-3 ovarian
[49] = test system: U251 CNS
[50] = test system: MDA-MB-435
[51] = test system: SK-MEL-5 melanoma
[52] = test system: SR leukemia
[53] = test system: OVCAR-8 ovarian
[54] = test system: UO-31 renal
[55] = test system: COLO 205 colon
[56] = test system: UACC-257 melanoma
[57] = test system: KM12 colon
[58] = test system: A549 NSCLC

In the case of `Cc1nn(-c2ccccc2)c2c1[C@@H](C)[C@H]1CC3(CC4(C)C[C@@H]3C1(C)c1c(C)nn(-c3ccccc3)c1N4C)N2C` (stereo partly drawn), the GI50 [1] is reported as 31.4 µM, the TGI [1] is reported as greater than 100 µM and the GI50 [2] is reported as greater than 100000 nM. It also gave a TGI [2] greater than 100 µM, a GI50 [3] greater than 100000 nM and a TGI [3] greater than 100 µM. For the same molecule, the GI50 [4] was 3460 nM, the TGI [4] was greater than 100 µM and the GI50 [5] was greater than 100000 nM. It also gave a TGI [5] greater than 100 µM, a GI50 [6] greater than 100000 nM and a TGI [6] greater than 100000 nM. For the same molecule, the GI50 [7] was greater than 100000 nM, the TGI [7] was greater than 100 µM and the GI50 [8] was greater than 100000 nM. The TGI [8] was greater than 100 µM, the GI50 [9] was 2640 nM and the TGI [9] was greater than 100 µM. It also gave a GI50 [10] of 3410 nM, a TGI [10] of 48.2 µM and a GI50 [11] greater than 100 µM. For the same molecule, the TGI [11] was greater than 100 µM, the GI50 [12] was greater than 100000 nM and the TGI [12] was greater than 100 µM. The GI50 [13] was greater than 100000 nM, the TGI [13] was greater than 100000 nM and the GI50 [14] was greater than 100000 nM. The TGI [14] was greater than 100 µM, the GI50 [15] was greater than 100000 nM and the TGI [15] was greater than 100 µM. The GI50 [16] was 18.3 µM, the TGI [16] was greater than 100 µM and the GI50 [17] was greater than 100000 nM. The TGI [17] was greater than 100 µM, the GI50 [18] was greater than 100000 nM and the TGI [18] was greater than 100 µM. The GI50 [19] was 792 nM, the TGI [19] was 8.68 µM and the GI50 [20] was greater than 100000 nM. The TGI [20] was greater than 100 µM, the GI50 [21] was 8.66 µM and the TGI [21] was greater than 100 µM. For the same molecule, the GI50 [22] was 24.1 µM, the TGI [22] was greater than 100000 nM and the GI50 [23] was 3.88 µM. It also gave a TGI [23] greater than 100000 nM, a GI50 [24] greater than 100000 nM and a TGI [24] greater than 100 µM. For the same molecule, the GI50 [25] was 591 nM, the TGI [25] was greater than 100 µM and the GI50 [26] was greater than 100000 nM. The TGI [26] was greater than 100 µM, the GI50 [27] was greater than 100000 nM and the TGI [27] was greater than 100000 nM. It also gave a GI50 [28] greater than 100000 nM, a TGI [28] greater than 100 µM and a GI50 [29] greater than 100 µM. It also gave a TGI [29] greater than 100 µM.
For `CN(C)c1ccc(-c2cc(-c3cccc(NS(C)(=O)=O)c3)nc(N)c2C#N)cc1`, the GI50 [30] was 31.9 nM, the TGI [30] was 457 nM and the GI50 [31] was 40.4 nM. The TGI [31] was 2190 nM, the GI50 [32] was 34.8 nM and the TGI [32] was 15.1 µM. For the same molecule, the GI50 [1] was 0.0508 µM, the TGI [1] was 35.1 µM and the GI50 [33] was 82.2 nM. It also gave a TGI [33] greater than 58.4 µM, a GI50 [34] of 35.7 nM and a TGI [34] of 19.8 µM. For the same molecule, the GI50 [35] was 37.8 nM, the TGI [35] was 18.6 µM and the GI50 [36] was 37.2 nM. It also gave a TGI [36] of 48.5 µM, a GI50 [37] of 36.2 nM and a TGI [37] of 411 nM. It also gave a GI50 [2] of 62.4 nM, a TGI [2] of 30.8 µM and a GI50 [3] of 45 nM. For the same molecule, the TGI [3] was 17.6 µM, the GI50 [38] was 46.6 nM and the TGI [38] was 13.5 µM. The GI50 [4] was 238 nM, the TGI [4] was 17.9 µM and the GI50 [5] was 29.2 nM. For the same molecule, the TGI [5] was 49.2 µM, the GI50 [39] was 133 nM and the TGI [39] was greater than 63.8 µM. It also gave a GI50 [40] of 27.2 nM, a TGI [40] of 3.22 µM and a GI50 [41] of 41.6 nM. For the same molecule, the TGI [41] was 2550 nM, the GI50 [6] was 27.9 nM and the TGI [6] was 173 nM. For the same molecule, the GI50 [7] was 44.9 nM, the TGI [7] was 21.8 µM and the GI50 [8] was 948 nM. For the same molecule, the TGI [8] was 47.9 µM, the GI50 [42] was 67 nM and the TGI [42] was 23.3 µM. The GI50 [43] was 41.1 nM, the TGI [43] was 18.6 µM and the GI50 [9] was 951 nM. For the same molecule, the TGI [9] was 35.9 µM, the GI50 [10] was 18.3 nM and the TGI [10] was 0.0565 µM. The GI50 [12] was 52.6 nM, the TGI [12] was greater than 48.9 µM and the GI50 [44] was 37.9 nM. It also gave a TGI [44] greater than 100 µM, a GI50 [13] of 110 nM and a TGI [13] of 1520 nM. It also gave a GI50 [14] of 45.7 nM, a TGI [14] of 20.5 µM and a GI50 [15] of 56.1 nM. It also gave a TGI [15] of 28.9 µM, a GI50 [16] of 0.045 µM and a TGI [16] of 29.6 µM. For the same molecule, the GI50 [17] was 121 nM, the TGI [17] was greater than 74.8 µM and the GI50 [18] was 49.1 nM. The TGI [18] was 13.5 µM, the GI50 [45] was 26.2 nM and the TGI [45] was 13.4 µM. It also gave a GI50 [46] of 36.2 nM, a TGI [46] of 11.8 µM and a GI50 [20] of 54 nM. It also gave a TGI [20] of 38.8 µM, a GI50 [21] of 0.522 µM and a TGI [21] of 53.8 µM. The GI50 [22] was 0.033 µM, the TGI [22] was 1740 nM and the GI50 [47] was 27.4 nM. It also gave a TGI [47] of 3.95 µM, a GI50 [48] of 22.6 nM and a TGI [48] of 56.8 nM. The GI50 [49] was 41.8 nM, the TGI [49] was 20.4 µM and the GI50 [50] was 12.2 nM. It also gave a TGI [50] of 35 nM, a GI50 [51] of 41.4 nM and a TGI [51] of 997 nM. For the same molecule, the GI50 [23] was less than 0.013 µM, the TGI [23] was 1210 nM and the GI50 [52] was 35.9 nM. For the same molecule, the TGI [52] was 26.7 µM, the GI50 [24] was 73.5 nM and the TGI [24] was greater than 55.2 µM. The GI50 [25] was 32.7 nM, the TGI [25] was 13.3 µM and the GI50 [26] was 53.7 nM. It also gave a TGI [26] of 20.7 µM, a GI50 [53] of 51.5 nM and a TGI [53] greater than 87.8 µM. The GI50 [54] was 56.2 nM, the TGI [54] was 45 µM and the GI50 [55] was 25 nM. For the same molecule, the TGI [55] was 72.9 nM, the GI50 [27] was 92.5 nM and the TGI [27] was 866 nM. It also gave a GI50 [56] of 56.3 nM, a TGI [56] of 44.6 µM and a GI50 [57] of 38.1 nM. It also gave a TGI [57] of 1750 nM, a GI50 [58] of 53.7 nM and a TGI [58] greater than 56.2 µM. The GI50 [28] was 64.5 nM and the TGI [28] was 4.65 µM.

Source: PubChem BioAssay (NCI)
